Data set [1] can be described thus: stability of the crystalline form (statement only, no method described). The class given is physicochemical.
A short description of data set [2]: hygroscopicity of the crystalline form (statement only, no method described). The format is physicochemical. As to conditions: solid form.

The record followed here is US8309553B2, “Anhydrous crystal form of ovrepitant maleate” (Glaxo Group Limited, priority 2008, dated 2012).

On to `Cc1cc(F)ccc1[C@H]1C[C@@H](N2CCN3C(=O)CC[C@H]3C2)CCN1C(=O)N(C)[C@H](C)c1cc(C(F)(F)F)cc(C(F)(F)F)c1.O=C(O)/C=C\C(=O)O` [Form 1, (2R,4S)—N-{(1R)-1-[3,5-bis(trifluoromethyl)phenyl]ethyl}-2-(4-fluoro-2-methylphenyl)-N-methyl-4-[(8aS)-6-oxohexahydropyrrolo[1,2-a]pyrazin-2(1H)-yl]-1-piperidinecarboxamide maleate], for which the “thermodynamic stability relative to Form 2” value in data set [1] (compared with Form 2 orvepitant maleate) was “thermodynamically more stable”. Besides, in data set [1] (solid form), the “stability of the crystalline form” value is recorded as “particularly stable”. Further, the hygroscopicity entry in data set [2] is listed as “essentially non hygroscopic”.
